# Tested on: rat osteocalcin promoter
# Test: OCN (osteocalcin) promoter assay in RG-15 (ROS 17/2.8) cells
# Assay type: cell-based
# Details: not given
# Procedure: 4. The OCN Promoter test is described in the “Assay” section of the Description, infra.
# 3. The OCN (Osteocalcin) Promoter Assay
# The OCN Promoter Assay is an indicator and marker for osteoporosis. Desired assay results are EC50 less than or equal to 325 nM. Preferred assay results are less than 50 nM.
# (3) Materials and Method for The OCN Promoter Assay:
# The activation of osteocalcin by VDR ligands was evaluated in a rat osteoblast-like cell line RG-15 (ROS 17/2.8) stably expressing rat osteocalcin promoter fused with luciferase reporter gene. The stable cell lines were established as reported before (Activation of Osteocalcin Transcription involves interaction of protein kinase A- and Protein kinase C-dependent pathways. Boguslawski, G., Hale, L. V., Yu, X.-P., Miles, R. R., Onyia, J. E., Santerre R. F., Chandrasekhar, S. J Biol. Chem. 275, 999-1006, 2000). Confluent RG-15 cells maintained in DMEM/F-12 medium (3:1) containing 5% FBS, 300 µg/ml G418 and at 37° C. under 5% CO2/95% air atmosphere were trypsinized (0.25% trypsin) and plated into white opaque 96-well cell culture plates (25000 cells/well). After 24 hr, cells (in DMEM/F-12 medium+2% FBS) were treated with various concentrations of compounds, dissolved in DMSO. The final DMSO concentration remained at 0.01% (v/v). After 48 hr treatment, the medium was removed, cells were lysed with 50 µl of lysis buffer (From Luciferase reporter assay system, Roche Diagnostics, Indianapolis, Ind.) and assayed for luciferase activity using the Luciferase Reporter Gene Assay kit from Boehringer Mannheim as per manufacturer's specifications.
row,Structure (SMILES),EC50 [µM]
1,"CCC(CC)(c1ccc(OCC(O)C(C)(C)C)c(C)c1)c1cc(C)c(C(=O)Nc2nnn[nH]2)s1 (single isomer, unassigned) [Ex. 37, 3′-[4-(2-hydroxy-3,3-dimethylbutoxy)-3-methylphenyl]-3′-[5-(tetrazol-5-yl-aminocarbonyl)-4-methylthiophen-2-yl]pentane]",0.24
2,"CCC(CC)(c1ccc(OCC(O)C(C)(C)C)c(C)c1)c1cc(C)c(C(=O)NCCS(C)(=O)=O)s1 (single isomer, unassigned) [Ex. 40, 5-[1-ethyl-1-[4-(2-hydroxy-3,3-dimethyl-butoxy)-3-methylphenyl]propyl]-3-methylthiophene-2-carboxylic acid (2-methylsulfonyl-ethyl) amide]",0.613
3,"CCC(CC)(c1ccc(OCC(O)C(C)(C)C)c(C)c1)c1cc(C)c(C(=O)N[C@@H](C)C(=O)OC)s1 (single isomer, unassigned) [Ex. 54, L-2-[(5-{1-Ethyl-1-[4-(2-hydroxy-3,3-dimethyl-butoxy)-3-methyl-phenyl]-propyl}-3-methyl-thiophene-2-carbonyl)amino]propionic acid methyl ester]",0.0275
4,"CCC(CC)(c1ccc(OCC(O)C(C)(C)C)c(C)c1)c1cc(C)c(C(=O)N[C@H](C)C(=O)OC)s1 (single isomer, unassigned) [Ex. 56, D-2-[(5-{1-Ethyl-1-[4-(2-hydroxy-3,3-dimethyl-butoxy)-3-methyl-phenyl]-propyl}-3-methyl-thiophene-2-carbonyl)-amino]-propionic acid methyl ester]",0.164
5,"CCC(CC)(c1ccc(OCC(O)C(C)(C)C)c(C)c1)c1cc(C)c(C(=O)N[C@@H](C)C(=O)OC)s1 (single isomer, unassigned) [Ex. 64, L-2-[(5-{1-Ethyl-1-[4-(2-hydroxy-3,3-dimethyl-butoxy)-3-methyl-phenyl]-propyl}-3-methyl-thiophene-2-carbonyl)-amino]-propionic acid methyl ester]",0.0041
6,"CCC(CC)(c1ccc(OCC(O)C(C)(C)C)c(C)c1)c1cc(C)c(C(=O)NC(C)(C)C(=O)OC)s1 (single isomer, unassigned) [Ex. 70, 2-[(5-{1-Ethyl-1-[4-(2-hydroxy-3,3-dimethyl-butoxy)-3-methyl-phenyl]-propyl}-3-methyl-thiophene-2-carbonyl)-amino]-2-methyl-propionic acid methyl ester]",0.0258
7,"CCC(CC)(c1ccc(OCC(O)C(C)(C)C)c(C)c1)c1cc(C)c(C(=O)N2CCC[C@H]2C(=O)OC)s1 (single isomer, unassigned) [Ex. 72, L-1-(5-{1-Ethyl-1-[4-(2-hydroxy-3,3-dimethyl-butoxy)-3-methyl-phenyl]-propyl}-3-methyl-thiophene-2-carbonyl)pyrrolidine-2-carboxylic acid methyl ester]",0.219
8,"CCC(CC)(c1ccc(OCC(O)C(C)(C)C)c(C)c1)c1cc(C)c(C(=O)N2CCC[C@H]2C(=O)OC)s1 (single isomer, unassigned) [Ex. 74, L-1-(5-{1-Ethyl-1-[4-(2-hydroxy-3,3-dimethyl-butoxy)-3-methyl-phenyl]-propyl}-3-methyl-thiophene-2-carbonyl)-pyrrolidine-2-carboxylic acid methyl ester]",0.479
9,"CCC(CC)(c1ccc(OCC(O)C(C)(C)C)c(C)c1)c1cc(C)c(C(=O)NC(C)(C)C(=O)OC)s1 (single isomer, unassigned) [Ex. 76, 2-[(5-{1-Ethyl-1-[4-(2-hydroxy-3,3-dimethyl-butoxy)-3-methyl-phenyl]-propyl}-3-methyl-thiophene-2-carbonyl)-amino]-2-methyl-propionic acid methyl ester]",0.0578
10,"CCC(CC)(c1ccc(OCC(C)(O)C(C)(C)C)c(C)c1)c1ccc(C(=O)O)s1 (single isomer, unassigned) [Ex. 105, 3′-[4-(2-hydroxy-2,3,3-trimethylbutoxy)-3-methylphenyl]-3′-[5-carboxy-thiophen-2-yl]pentane]",0.736
11,"CCCc1cc(C(CC)(CC)c2ccc(C(=O)O)s2)ccc1OCC(C)(O)C(C)(C)C (single isomer, unassigned) [Ex. 112, 3′-[4-(2-hydroxy-2,3,3-trimethylbutoxy)-3-n-propylphenyl]-3′-[5-carboxy-thiophen-2-yl]pentane]",0.005

# Same assay, conditions: Rattus norvegicus
row,EC50 [µM],Structure (SMILES)
1,0.0491,"CCC(CC)(c1ccc(C(=O)NCC(=O)O)c(C)c1)c1cc(C)c(CCC(O)C(C)(C)C)s1 (single isomer, unassigned) [Ex. 27]"
2,0.00076,"CCOC(=O)CCc1ccc(C(CC)(CC)c2cc(C)c(CCC(O)C(C)(C)C)s2)cc1C (single isomer, unassigned) [Ex. 28]"
3,0.0112,"CCC(CC)(c1ccc(CCC(=O)O)c(C)c1)c1cc(C)c(CCC(O)C(C)(C)C)s1 (single isomer, unassigned) [Ex. 30A]"
4,0.111,"CCC(CC)(c1ccc(OCC(O)C(C)(C)C)c(C)c1)c1cc(C)c(CO)s1 (single isomer, unassigned) [Ex. 126]"
5,0.0926,"CCC(CC)(c1ccc(OCC(O)C(C)(C)C)c(C)c1)c1cc(C)c(-c2n[nH]c(=O)o2)s1 (single isomer, unassigned) [Ex. 171]"
6,0.313,CCC(CC)(c1ccc(OCS(C)(=O)=O)c(C)c1)c1cc(C)c(CCC(=O)C(C)(C)C)s1 [Ex. 13]
7,0.0466,CCC(CC)(c1ccc(OCS(C)(=O)=O)c(C)c1)c1cc(C)c(CC[C@@H](O)C(C)(C)C)s1 [Ex. 14]
8,0.14,CCC(CC)(c1ccc(C(=O)OC)c(C)c1)c1cc(C)c(CCC(O)C(C)(C)C)s1 (stereo not drawn) [Ex. 21]
9,0.0047,CCC(CC)(c1ccc(C(=O)NCC(=O)OC)c(C)c1)c1cc(C)c(CCC(O)C(C)(C)C)s1 (stereo not drawn) [Ex. 24]
10,0.00795,CCC(CC)(c1ccc(C(=O)NCC(=O)O)c(C)c1)c1cc(C)c(CCC(O)C(C)(C)C)s1 (stereo not drawn) [Ex. 26]
11,0.0078,CCC(CC)(c1ccc(OCC(=O)OC)c(C)c1)c1cc(C)c(CCC(O)C(C)(C)C)s1 (stereo not drawn) [Ex. 31]
12,0.00935,CCC(CC)(c1ccc(OCC(=O)O)c(C)c1)c1cc(C)c(CCC(O)C(C)(C)C)s1 (stereo not drawn) [Ex. 32]
13,0.3,"CCC(CC)(c1ccc(OCC(=O)C(C)(C)C)c(C)c1)c1cc(C)c(C(=O)NCCS(C)(=O)=O)s1 [Ex. 41, 5-{1-[4-(3,3-Dimethyl-2-oxo-butyoxy)-3-methyl-phenyl]-1-ethyl-propyl}-3-methyl-thiophene-2-carbolic acid (2-methanesulfonyl-ethyl]-amide]"

# Second part, the molecule before the results:
row,Structure (SMILES),EC50 [µM]
1,"CCC(CC)(c1ccc(C(=O)NCC(=O)OC)c(C)c1)c1cc(C)c(CCC(O)C(C)(C)C)s1 (single isomer, unassigned) [Ex. 25A]",0.0099
2,"CCC(CC)(c1ccc(OCC(O)C(C)(C)C)c(C)c1)c1cc(C)c(C(=O)N[C@@H](CC(=O)OC)C(=O)OC)s1 (single isomer, unassigned) [Ex. 58, L-2-[(5-{1-ethyl-1-[4-(2-hydroxy-3,3-dimethyl-butoxy)-3-methyl-phenyl]-propyl}-3-methyl-thiophene-2-carbonyl)-amino]-succinic acid dimethyl ester]",0.277
3,"CCC(CC)(c1ccc(OCC(O)C(C)(C)C)c(C)c1)c1cc(C)c(C(=O)N2CCC[C@H]2C(=O)O)s1 (single isomer, unassigned) [Ex. 73, L-1-(5-{1-Ethyl-1-[4-(2-hydroxy-3,3-dimethyl-butoxy)-3-methyl-phenyl]-propyl}-3-methyl-thiophene-2-carbonyl)pyrrolidine-2-carboxylic acid]",0.266
4,"CCC(CC)(c1ccc(OCC(O)C(C)(C)C)c(C)c1)c1cc(C)c(C(=O)N(C)CC(=O)O)s1 (single isomer, unassigned) [Ex. 122, N-methyl-2-[(5-{1-ethyl-1-[4-(2-hydroxy-3,3-dimethyl-butoxy)-3-methyl-phenyl]-propyl}-3-methyl-thiophene-2-carbonyl)-methylamino]-acetic acid]",0.0675
5,"Cc1cc(C2(c3ccc(OCC(=O)C(C)(C)C)c(C)c3)CCCCC2)ccc1OCC(=O)C(C)(C)C [CC, 1-(4-{1-[4-(3,3-Dimethyl-2-oxo-butoxy)-3-methyl-phenyl]-cyclohexyl}-2-methyl-phenoxy)-3,3-dimethyl-butan-2-one, reference compound]",> 1
6,CCC(CC)(c1ccc(OCC(=O)C(C)(C)C)c(C)c1)c1cc(C)c(C(=O)OC)s1 [Ex. 1],0.141
7,CCC(CC)(c1ccc(C(=O)OC)c(C)c1)c1cc(C)c(CCC(=O)C(C)(C)C)s1 [Ex. 20],0.862
8,"CCC(CC)(c1ccc(OCC(O)C(C)(C)C)c(C)c1)c1cc(C)c(C(=O)NCCS(C)(=O)=O)s1 (stereo not drawn) [Ex. 38, 5-[1-ethyl-1-[4-(2-hydroxy-3,3-dimethyl-butoxy)-3-methylphenyl]propyl]-3-methylthiophene-2-carboxylic acid (2-methylsulfonyl-ethyl) amide]",0.38
9,"CCC(CC)(c1ccc(OCC(O)C(C)(C)C)c(C)c1)c1cc(C)c(C(=O)N(C)OC)s1 (stereo not drawn) [Ex. 42, 5-{1-Ethyl-1-[4-(2-hydroxy-3,3-dimetliyl-butyoxy)-3-methyl-phenyl]-propyl}-3methyl-thiophene-2-carboxylic acid methoxy-methyl-amide]",0.0335
